Literature values, collected in patent US9272036B2, “Carbon dioxide, saline and additional active nasal delivery methods and treatments” (CLOVER HILL HEALTHCARE, INC., priority 2012, dated 2016).

System: subjects with SAR

## O=C=O [CO(2), carbon dioxide]
After pretreatment with CO(2), increased significantly with sham treatment
  histamine levels in ipsilateral nasal secretions: did not increase
During 20-second intranasal exposure
  sensation reported by subjects during exposure: transient burning sensation
Nasal allergen challenge 30 minutes after 20-second CO(2) exposure, compared with no treatment
  ipsilateral secretion weights: numerically reduced
Nasal allergen challenge 30 minutes after 20-second CO(2) exposure, compared with no treatment, p=0.01
  bilateral runny nose symptoms: significant reduction
Nasal allergen challenge 30 minutes after 20-second CO(2) exposure, compared with no treatment, p=0.04
  contralateral secretion weights (reflex secretory response, primary outcome): significant reduction
Nasal allergen challenge (grass or ragweed) 30 minutes after 20-second CO(2) exposure, compared with no treatment, p=0.05
  sneezes: significant reduction
Treatment with nasal CO(2)
  acute response to allergen challenge (overall): partial reduction
